The test system of assay [1] is 5′ splice site II on PKCδ exon 10. Kind of assay: Mutated pSPL3_PKCδ** minigene (SC35 cis-element mutated) in NT2 cells, RT-PCR. Conditions: RA about 10 μM, about 24 h. Format: cell-based, human. The source says:
FIG. 11 is a series of images depicting mutation of putative SC35 binding site inhibits RA-mediated utilization of 5′ splice site II utilization on the minigene. (a) schematic of the position and sequence of the putative SC35 cis-element on the pSPL3_PKCδ splicing minigene. Arrows indicate the position of primers used in PCR analysis. Putative SC35 binding site ggccaaag (SEQ ID No: 17) was mutated to tagcccaga (SEQ ID No: 18) on the minigene. (b) resulting mutated minigene pSPL3_PKCδ** was transfected into NT2 cells. In separate wells, the mutated minigene pSPL3_PKCδ** was co-transfected with either about 2 μg of SC35 or SF2/ASF. The original pSPL3_PKCδ splicing minigene was also transfected in a separate well. After overnight transfection, NT2 cells were treated with or without about 10 μM RA for about 24 h. Total RNA was extracted and RT-PCR performed using primers for PKCδ exon 10 sense and SA antisense as shown. About 5% of the products were separated by PAGE and silver stained for visualization. SSI: usage of 5′ splice site I; SSII: usage of 5′ splice site II. Graph represents percent exon inclusion calculated as SS II/(SS II+SSI)×100 and is representative of three experiments performed separately. […]

The next assay has as its system SR proteins. Briefly: Western blot of NT2 whole cell lysates with mAb104 antibody. Format: cell-based, human. Conditions: RA about 10 μM, about 24 h; NT2 cells. On the procedure:
(§1) FIG. 6 is a series of images illustrating the detection of SR proteins involved in RA-mediated PKXδVIII expression. NT2 cells were treated with RA (about 10 μM) for about 24 h or without RA (control), and Western blot analysis was performed on whole cell lysates using (a) mAb104 antibody that detects all SR proteins and (b) specific antibodies as indicated in the figure. Molecular masses are indicated (kDa).
(§2) Cell lysates (about 40 μg) were separated on 10% SDS-PAGE. […] In apoptotic cells, PARP is cleaved by caspase 3 into an 85 kDa fragment which is detected in addition to the 116 KDa fragment using anti-PARP antibody in western blot analysis. […] (Putt K S, Beilman G J, and H. P J., Direct quantitation of poly(ADP-ribose) polymerase (PARP) activity as a means to distinguish necrotic and apoptotic death in cell and tissue samples. Chembiochem, 2005. 6: p. 53-55)
(§3) (SR) proteins that bind to exonic or intronic splicing enhancers (ESE, ISE) on the pre-mRNA. […] NT2 cells were treated with or without RA (about 24 h), and whole cell lysates were analyzed by Western blot analysis using mAb104 antibody that simultaneously detects the phosphoepitopes on all SR proteins. […]
A general note: A western blot detects proteins with antibodies after separation by electrophoresis.

The subject of a further assay is SF2/ASF (SRp30a). Kind of assay: Western blot of NT2 whole cell lysates with specific antibodies. Format: cell-based, human. Conditions: RA about 10 μM, about 24 h; NT2 cells. On the procedure:
as §1, §2, §3

In the next assay the test system is SC35 (SRp30b). Described as above. The class given is cell-based, human. Conditions: RA about 10 μM, about 24 h; NT2 cells. As for the experimental part:
as §1, §2, §3

The test system of another assay is ischemic stroke. Conditions: RA injections immediately and following ischemia; cited from earlier work.
For the next assay, the system named is PKCδ promoter. Briefly: pGlow-PKCδ promoter reporter transfected into NT2 cells. Conditions: RA treatment. The class given is cell-based, human. The source says: Computational analysis of PKCδ promoter indicated putative RAREs. pGlow-PKCδ promoter (gift from Dr. Stuart H. Yuspa, NCI) was transfected into NT2 cells to determine if RA regulates transcription of the PKCδ gene via RARE on the PKCδ promoter region. […] This was verified by western blot analysis using GFP antibody to confirm up-regulation of PKCδ promoter by ATRA treatment.

For `CC1=C(/C=C/C(C)=C/C=C/C(C)=C/C(=O)O)C(C)(C)CCC1` [RA, all-trans-retinoic acid], in assay [1], the “selection of 5′ splice site II on PKCδ exon 10 in pSPL3_PKCδ**-mutated minigene” value was “did not promote”. Also, in the assay with SR proteins, the “SR protein at ~30 kDa expression (mAb104)” value is on record as “increased in expression”. The “SF2/ASF (SRp30a) expression” value in the assay on SF2/ASF (SRp30a) is “remained relatively constant”. Besides, in the assay with SC35 (SRp30b), the “SC35 (SRp30b) expression” value is reported as “increase”. In addition, the infarct volume result in the assay with ischemic stroke was “reduced”. Further, the “fluorescence of pGlow-PKCδ promoter compared to control samples” value in the assay with PKCδ promoter is recorded as “four-fold increase”.

The record behind these values is patent US20130059787A1, “METHODS OF USING HUMAN PROTEIN KINASE C DELTA VIII AS A BIOMARKER” (UNITED STATES DEPARTMENT OF VETERAN AFFAIRS, priority 2010, published 2013).
